# Where “and” joins values, the source holds several entries; their conditions need not be identical. Equal values may be shown once.
# Tested on: LNCaP tumor-bearing mice
# Assay: Ex vivo biodistribution in LNCaP tumor-bearing mice
# Parameters: species or system mouse
# Details: for Time of peak tumor uptake: post-injection
# Experimental: Imaging, biodistribution and radioligand therapy experiments were performed following previously published procedures using male NOD-scid IL2Rg^null (NSG) or NOD.Cg-Rag1^tm1MomIl2rg^tm1Wjl/SzJ (NRG) mice [10]-[12],[14]-[15]. The experiments were conducted according to the guidelines established by the Canadian Council on Animal Care and approved by Animal Ethics Committee of the University of British Columbia. The mice were briefly sedated by inhalation of 2% isoflurane in oxygen, and implanted subcutaneously with 1×10^7 LNCaP cells behind the left shoulder. The mice were imaged or used in biodistribution studies when the tumor grew to 5-8 mm in diameter over a period of 4-5 weeks.
# For biodistribution studies, the mice were injected with the radioligand (2-4 MBq) as described above. For blocking, the mice were co-injected with nonradioactive DCFPyL (0.5 mg). At predetermined time points, the mice were sedated by isoflurane inhalation and euthanized by CO2 inhalation. Blood was withdrawn by cardiac puncture, and organs/tissues of interest were collected, weighed and counted using an automatic gamma counter (Tables S4-S7).
smiles,measurement,setting,value
COc1ccc(CCCC(=O)NCC(=O)N[C@@H](CCCCNC(=O)CN2CCN(CC(=O)[O-])CCN(CC(=O)[O-])CCN(CC(=O)[O-])CC2)C(=O)NC[C@H]2CC[C@H](C(=O)N[C@@H](Cc3c4ccccc4cc4ccccc34)C(=O)NCCCC[C@H](NC(=O)N[C@@H](COCC(=O)O)C(=O)O)C(=O)O)CC2)cc1.[177Lu+3] [[^177Lu]Lu-HTK04028],Adrenal glands uptake,1 h post-injection,3.25 ± 0.34 %ID/g
same,Blood uptake,1 h post-injection,17.7 ± 2.10 %ID/g
same,Blood:Salivary gland uptake ratio,1 h post-injection,6.93 ± 0.33
same,Bone uptake,1 h post-injection,0.99 ± 0.21 %ID/g
same,Brain uptake,1 h post-injection,0.26 ± 0.03 %ID/g
same,Fat uptake,1 h post-injection,1.26 ± 0.21 %ID/g
same,Heart uptake,1 h post-injection,4.15 ± 0.31 %ID/g
same,Intestines uptake,1 h post-injection,1.23 ± 0.24 %ID/g
same,Kidneys uptake,1 h post-injection,8.30 ± 1.58 %ID/g
same,Lacrimal glands uptake,1 h post-injection,0.51 ± 0.23 %ID/g
same,Liver uptake,1 h post-injection,2.93 ± 0.51 %ID/g
same,Lungs uptake,1 h post-injection,7.88 ± 1.77 %ID/g
same,Muscle uptake,1 h post-injection,1.32 ± 0.19 %ID/g
same,Pancreas uptake,1 h post-injection,1.53 ± 0.22 %ID/g
same,Salivary glands uptake,1 h post-injection,2.55 ± 0.21 %ID/g
same,Spleen uptake,1 h post-injection,1.53 ± 0.23 %ID/g
same,Stomach uptake,1 h post-injection,0.51 ± 0.18 %ID/g
same,Testes uptake,1 h post-injection,2.26 ± 0.46 %ID/g
same,Thyroid uptake,1 h post-injection,3.30 ± 0.42 %ID/g
same,Tumor uptake,1 h post-injection,19.0 ± 5.86 %ID/g
same,Tumor:Blood uptake ratio,1 h post-injection,1.11 ± 0.45
same,Tumor:Kidney uptake ratio,1 h post-injection,2.39 ± 0.99
same,Tumor:Muscle uptake ratio,1 h post-injection,14.5 ± 4.46
same,Tumor:Salivary gland uptake ratio,1 h post-injection,7.60 ± 2.89
same,Adrenal glands uptake,4 h post-injection,2.18 ± 0.33 %ID/g
same,Blood uptake,4 h post-injection,12.2 ± 1.66 %ID/g
same,Blood:Salivary gland uptake ratio,4 h post-injection,7.09 ± 1.45
same,Bone uptake,4 h post-injection,0.63 ± 0.10 %ID/g
same,Brain uptake,4 h post-injection,0.19 ± 0.02 %ID/g
same,Fat uptake,4 h post-injection,0.89 ± 0.24 %ID/g
same,Heart uptake,4 h post-injection,2.67 ± 0.31 %ID/g
same,Intestines uptake,4 h post-injection,1.04 ± 0.12 %ID/g
same,Kidneys uptake,4 h post-injection,9.21 ± 2.76 %ID/g
same,Lacrimal glands uptake,4 h post-injection,0.39 ± 0.19 %ID/g
same,Liver uptake,4 h post-injection,2.29 ± 0.55 %ID/g
same,Lungs uptake,4 h post-injection,5.79 ± 0.44 %ID/g
same,Muscle uptake,4 h post-injection,0.83 ± 0.09 %ID/g
same,Pancreas uptake,4 h post-injection,1.24 ± 0.04 %ID/g
same,Salivary glands uptake,4 h post-injection,1.75 ± 0.25 %ID/g
same,Spleen uptake,4 h post-injection,1.44 ± 0.31 %ID/g
same,Stomach uptake,4 h post-injection,0.45 ± 0.06 %ID/g
same,Testes uptake,4 h post-injection,2.66 ± 0.41 %ID/g
same,Thyroid uptake,4 h post-injection,2.30 ± 0.30 %ID/g
same,Tumor uptake,4 h post-injection,42.6 ± 11.6 %ID/g
same,Tumor:Blood uptake ratio,4 h post-injection,3.60 ± 1.24
same,Tumor:Kidney uptake ratio,4 h post-injection,4.89 ± 1.58
same,Tumor:Muscle uptake ratio,4 h post-injection,52.2 ± 17.4
same,Tumor:Salivary gland uptake ratio,4 h post-injection,24.5 ± 5.95
same,Adrenal glands uptake,24 h post-injection,0.73 ± 0.13 %ID/g
same,Blood uptake,24 h post-injection,0.82 ± 0.11 %ID/g
same,Blood:Salivary gland uptake ratio,24 h post-injection,1.88 ± 0.42
same,Bone uptake,24 h post-injection,0.11 ± 0.02 %ID/g
same,Brain uptake,24 h post-injection,0.02 ± 0.00 %ID/g
same,Fat uptake,24 h post-injection,0.14 ± 0.02 %ID/g
same,Heart uptake,24 h post-injection,0.36 ± 0.03 %ID/g
same,Intestines uptake,24 h post-injection,0.23 ± 0.05 %ID/g
same,Kidneys uptake,24 h post-injection,4.32 ± 0.58 %ID/g
same,Lacrimal glands uptake,24 h post-injection,0.05 ± 0.04 %ID/g
same,Liver uptake,24 h post-injection,0.54 ± 0.09 %ID/g
same,Lungs uptake,24 h post-injection,1.08 ± 0.72 %ID/g
same,Muscle uptake,24 h post-injection,0.11 ± 0.02 %ID/g
same,Pancreas uptake,24 h post-injection,0.15 ± 0.02 %ID/g
same,Salivary glands uptake,24 h post-injection,0.45 ± 0.10 %ID/g
same,Spleen uptake,24 h post-injection,0.48 ± 0.14 %ID/g
same,Stomach uptake,24 h post-injection,0.31 ± 0.10 %ID/g
same,Testes uptake,24 h post-injection,0.55 ± 0.05 %ID/g
same,Thyroid uptake,24 h post-injection,0.52 ± 0.08 %ID/g
same,Tumor uptake,24 h post-injection,30.2 ± 2.74 %ID/g
same,Tumor:Blood uptake ratio,24 h post-injection,37.2 ± 4.22
same,Tumor:Kidney uptake ratio,24 h post-injection,7.06 ± 0.86
same,Tumor:Muscle uptake ratio,24 h post-injection,275 ± 35.3
same,Tumor:Salivary gland uptake ratio,24 h post-injection,69.3 ± 15.8
same,Adrenal glands uptake,72 h post-injection,0.48 ± 0.17 %ID/g
same,Blood uptake,72 h post-injection,0.05 ± 0.01 %ID/g
same,Blood:Salivary gland uptake ratio,72 h post-injection,0.26 ± 0.06
same,Bone uptake,72 h post-injection,0.05 ± 0.02 %ID/g
same,Brain uptake,72 h post-injection,0.01 ± 0.00 %ID/g
same,Fat uptake,72 h post-injection,0.06 ± 0.02 %ID/g
same,Heart uptake,72 h post-injection,0.12 ± 0.03 %ID/g
same,Intestines uptake,72 h post-injection,0.07 ± 0.03 %ID/g
same,Kidneys uptake,72 h post-injection,1.77 ± 0.25 %ID/g
same,Lacrimal glands uptake,72 h post-injection,0.01 ± 0.01 %ID/g
same,Liver uptake,72 h post-injection,0.22 ± 0.02 %ID/g
same,Lungs uptake,72 h post-injection,0.18 ± 0.02 %ID/g
same,Muscle uptake,72 h post-injection,0.03 ± 0.01 %ID/g
same,Pancreas uptake,72 h post-injection,0.05 ± 0.01 %ID/g
same,Salivary glands uptake,72 h post-injection,0.19 ± 0.05 %ID/g
same,Spleen uptake,72 h post-injection,0.49 ± 0.16 %ID/g
same,Stomach uptake,72 h post-injection,0.07 ± 0.07 %ID/g
same,Testes uptake,72 h post-injection,0.31 ± 0.05 %ID/g
same,Thyroid uptake,72 h post-injection,0.24 ± 0.04 %ID/g
same,Tumor uptake,72 h post-injection,26.1 ± 7.29 %ID/g
same,Tumor:Blood uptake ratio,72 h post-injection,550 ± 108
same,Tumor:Kidney uptake ratio,72 h post-injection,14.6 ± 2.72
same,Tumor:Muscle uptake ratio,72 h post-injection,886 ± 181
same,Tumor:Salivary gland uptake ratio,72 h post-injection,144 ± 35.6
same,Adrenal glands uptake,120 h post-injection,0.33 ± 0.05 %ID/g
same,Blood uptake,120 h post-injection,0.02 ± 0.00 %ID/g
same,Blood:Salivary gland uptake ratio,120 h post-injection,0.17 ± 0.04
same,Bone uptake,120 h post-injection,0.04 ± 0.02 %ID/g
same,Fat uptake,120 h post-injection,0.03 ± 0.01 %ID/g
same,Heart uptake,120 h post-injection,0.07 ± 0.01 %ID/g
same,Intestines uptake,120 h post-injection,0.08 ± 0.05 %ID/g
same,Kidneys uptake,120 h post-injection,1.16 ± 0.13 %ID/g
same,Liver uptake,120 h post-injection,0.16 ± 0.02 %ID/g
same,Lungs uptake,120 h post-injection,0.09 ± 0.01 %ID/g
same,Muscle uptake,120 h post-injection,0.02 ± 0.00 %ID/g
same,Pancreas uptake,120 h post-injection,0.03 ± 0.00 %ID/g
same,Salivary glands uptake,120 h post-injection,0.11 ± 0.03 %ID/g
same,Spleen uptake,120 h post-injection,0.54 ± 0.15 %ID/g
same,Stomach uptake,120 h post-injection,0.10 ± 0.10 %ID/g
same,Testes uptake,120 h post-injection,0.22 ± 0.01 %ID/g
same,Thyroid uptake,120 h post-injection,0.13 ± 0.02 %ID/g
same,Tumor uptake,120 h post-injection,~ 28 %ID/g
same,Tumor:Blood uptake ratio,120 h post-injection,1714 ± 320
same,Tumor:Kidney uptake ratio,120 h post-injection,24.9 ± 5.16
same,Tumor:Muscle uptake ratio,120 h post-injection,1825 ± 415
same,Tumor:Salivary gland uptake ratio,120 h post-injection,284 ± 87.9
same,Tumor uptake,"120 h post-injection, listed as [177Lu]Lu-HTK04028",28.4 ± 5.11 %ID/g
same,Peaked average tumor uptake,peak over 1-120 h post-injection,~ 43 %ID/g and 42.6 %ID/g
same,Time of peak tumor uptake,,4 h
same,Time of peak tumor uptake,listed as 177Lu-labeled HTK04028,4 to 24 h

# Source: paper PMC10465233, “Lys-urea-Aad, Lys-urea-Cmc and Lys-urea-Cms as potential pharmacophores for the design of PSMA-targeted radioligands to reduce off-target uptake in kidneys and salivary glands” (Theranostics, 2023)
